# Measurements as given in publication PMC5976192, “Design of a glutamine substrate tag enabling protein labelling mediated by Bacillus subtilis transglutaminase” (PLoS ONE, 2018).
# Target: T1, bTG (Bacillus subtilis transglutaminase) (Bacillus subtilis, UniProt P40746)
# T1 construct: gene tgl; recombinant, expressed in E. coli in active form and purified; about 28 kDa; construct details only in S1 File
# T1 sequence (P40746 1-245): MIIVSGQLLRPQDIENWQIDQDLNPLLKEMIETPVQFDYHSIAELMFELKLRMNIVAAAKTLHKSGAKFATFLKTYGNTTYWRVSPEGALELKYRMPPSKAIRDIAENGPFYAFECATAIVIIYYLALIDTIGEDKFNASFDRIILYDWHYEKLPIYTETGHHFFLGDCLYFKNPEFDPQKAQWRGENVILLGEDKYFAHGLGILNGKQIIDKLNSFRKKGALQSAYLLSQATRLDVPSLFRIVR
# Assay: GDH-coupled assay; fluorescent labelling on SDS-PAGE
# Assay type: biochemical
# Details: acyl acceptor at 5 mM; 0.8 μM Q-tagged mRuby2 as acyl donor; 0.1 U bTG; 20 min; gel labelling 3 h at 37 °C; initial rates only
smiles,measurement,value
CN(C)c1cccc2c(S(=O)(=O)NCCCCCN)cccc12 [dansyl-cadaverine],GDH-coupled assay; fluorescent labelling on SDS-PAGE,initial rates of transamidation between Q-tagged mRuby2 and dansyl-cadaverine were measured using the GDH-coupled assay
